Literature values as cited in patent US20100068203A1, “17-Oxymacbecin Derivatives and Their Use in the Treatment of Cancer and/or B-Cell Malignancies” (priority 2006, published 2010).
One block for each molecule: values may come before it.

Legend:
[1] = molecular target: Hsp90 (Homo sapiens, UniProt P07900)
[2] = test system: SKBr3; conditions: compared with geldanamycin and 17-AAG
[3] = test system: protozoa
[4] = test system: bacteria and fungi; conditions: in vitro
[5] = test system: Reverse transcriptase
[6] = molecular target: terminal deoxynucleotidyl transferase (Homo sapiens, UniProt P04053)
terminal deoxynucleotidyl transferase, sequence (P04053 whole entry, species assumed): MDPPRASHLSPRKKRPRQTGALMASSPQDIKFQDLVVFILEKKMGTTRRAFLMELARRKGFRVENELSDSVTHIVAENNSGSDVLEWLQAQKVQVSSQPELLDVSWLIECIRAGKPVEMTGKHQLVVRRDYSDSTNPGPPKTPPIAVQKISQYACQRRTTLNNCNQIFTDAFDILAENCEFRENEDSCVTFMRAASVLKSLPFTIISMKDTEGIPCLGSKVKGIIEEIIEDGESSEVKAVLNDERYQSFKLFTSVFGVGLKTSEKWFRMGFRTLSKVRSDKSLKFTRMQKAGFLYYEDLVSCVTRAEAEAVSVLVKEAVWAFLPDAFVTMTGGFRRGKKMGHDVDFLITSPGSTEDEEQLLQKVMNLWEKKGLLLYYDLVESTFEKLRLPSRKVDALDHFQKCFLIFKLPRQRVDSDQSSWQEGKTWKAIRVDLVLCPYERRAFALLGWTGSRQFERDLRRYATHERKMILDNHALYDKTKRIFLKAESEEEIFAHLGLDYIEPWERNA

binding affinity to Hsp90, greater than 17-AAG ([1]; relative to 17-AAG): 8 fold
binding affinity to Hsp90, greater than geldanamycin ([1]; relative to geldanamycin): 4 fold
IC50 measurement using SKBr3 [2]: not reflected in an improvement
Structure (SMILES): CO[C@H]1C[C@H](C)Cc2cc(O)cc(c2)NC(=O)/C=C/CC[C@H](OC)[C@@H](OC(N)=O)/C(C)=C/[C@H](C)[C@H]1O [KOSN1559]

Structure (SMILES): COC1=C2C[C@@H](C)C[C@H](OC)[C@H](O)[C@@H](C)/C=C(\C)[C@H](OC(N)=O)[C@@H](OC)/C=C\C=C(/C)C(=O)NC(=CC1=O)C2=O [geldanamycin]
activity in vitro against protozoa [3]: strong activity
activity against bacteria and fungi [4]: weak activity

Structure (SMILES): CO[C@H]1[C@@H](OC)C[C@H](C)[C@@H](OC)C2=CC(=O)C=C(NC(=O)/C(C)=C/C=C\[C@H](C)[C@@H](OC(N)=O)/C(C)=C/[C@@H]1C)C2=O [macbecin]
Reverse transcriptase activity inhibition [5]: not inhibited
terminal deoxynucleotidyl transferase activity inhibition [6]: not inhibited
